Reference: PubChem BioAssay AID1259407 (Chemical Carcinogenesis Research Information System (CCRIS), 2018)
Calls of active or inactive are those of the source. The rule behind the calls is not given here.

Test system: CCRIS mutagenicity, Ames/micronucleus/aberration tests
Test: CCRIS mutagenicity studies

Measured: mutagenic call

CCN(N=O)c1ccccc1
inactive: Test System: AMES SALMONELLA TYPHIMURIUM, Strain/Indicator: TA1537, Metabolic Activation: HAMSTER, LIVER, S-9, AROCLOR 1254, Method: PREINCUBATION inactive; negative | Test System: AMES SALMONELLA TYPHIMURIUM, Strain/Indicator: TA1537, Metabolic Activation: HAMSTER, LIVER, S-9, AROCLOR 1254, Method: STANDARD PLATE inactive; negative | Test System: AMES SALMONELLA TYPHIMURIUM, Strain/Indicator: TA1537, Metabolic Activation: HAMSTER, LIVER, S-9, Method: PREINCUBATION inactive; negative | Test System: AMES SALMONELLA TYPHIMURIUM, Strain/Indicator: TA1537, Metabolic Activation: HAMSTER, LIVER, S-9, Method: STANDARD PLATE inactive; negative | Test System: AMES SALMONELLA TYPHIMURIUM, Strain/Indicator: TA1537, Metabolic Activation: MOUSE, LIVER, S-9, AROCLOR 1254, Method: PREINCUBATION inactive; negative | Test System: AMES SALMONELLA TYPHIMURIUM, Strain/Indicator: TA1537, Metabolic Activation: MOUSE, LIVER, S-9, AROCLOR 1254, Method: STANDARD PLATE inactive; negative | Test System: AMES SALMONELLA TYPHIMURIUM, Strain/Indicator: TA1537, Metabolic Activation: MOUSE, LIVER, S-9, Method: PREINCUBATION inactive; negative | Test System: AMES SALMONELLA TYPHIMURIUM, Strain/Indicator: TA1537, Metabolic Activation: MOUSE, LIVER, S-9, Method: STANDARD PLATE inactive; negative | Test System: AMES SALMONELLA TYPHIMURIUM, Strain/Indicator: TA1537, Metabolic Activation: NONE, Method: PREINCUBATION inactive; negative | Test System: AMES SALMONELLA TYPHIMURIUM, Strain/Indicator: TA1537, Metabolic Activation: NONE, Method: STANDARD PLATE inactive; negative | Test System: AMES SALMONELLA TYPHIMURIUM, Strain/Indicator: TA1537, Metabolic Activation: RAT, LIVER, S-9, AROCLOR 1254, Method: PREINCUBATION inactive; negative | Test System: AMES SALMONELLA TYPHIMURIUM, Strain/Indicator: TA1537, Metabolic Activation: RAT, LIVER, S-9, AROCLOR 1254, Method: STANDARD PLATE inactive; negative | Test System: AMES SALMONELLA TYPHIMURIUM, Strain/Indicator: TA1537, Metabolic Activation: RAT, LIVER, S-9, Method: PREINCUBATION inactive; negative | Test System: AMES SALMONELLA TYPHIMURIUM, Strain/Indicator: TA1537, Metabolic Activation: RAT, LIVER, S-9, Method: STANDARD PLATE inactive; negative | Test System: AMES SALMONELLA TYPHIMURIUM, Strain/Indicator: TA1538, Metabolic Activation: HAMSTER, LIVER, S-9, AROCLOR 1254, Method: PREINCUBATION inactive; negative | Test System: AMES SALMONELLA TYPHIMURIUM, Strain/Indicator: TA1538, Metabolic Activation: HAMSTER, LIVER, S-9, AROCLOR 1254, Method: STANDARD PLATE inactive; negative | Test System: AMES SALMONELLA TYPHIMURIUM, Strain/Indicator: TA1538, Metabolic Activation: HAMSTER, LIVER, S-9, Method: PREINCUBATION inactive; negative | Test System: AMES SALMONELLA TYPHIMURIUM, Strain/Indicator: TA1538, Metabolic Activation: HAMSTER, LIVER, S-9, Method: STANDARD PLATE inactive; negative | Test System: AMES SALMONELLA TYPHIMURIUM, Strain/Indicator: TA1538, Metabolic Activation: MOUSE, LIVER, S-9, AROCLOR 1254, Method: PREINCUBATION inactive; negative | Test System: AMES SALMONELLA TYPHIMURIUM, Strain/Indicator: TA1538, Metabolic Activation: MOUSE, LIVER, S-9, AROCLOR 1254, Method: STANDARD PLATE inactive; negative | Test System: AMES SALMONELLA TYPHIMURIUM, Strain/Indicator: TA1538, Metabolic Activation: MOUSE, LIVER, S-9, Method: PREINCUBATION inactive; negative | Test System: AMES SALMONELLA TYPHIMURIUM, Strain/Indicator: TA1538, Metabolic Activation: MOUSE, LIVER, S-9, Method: STANDARD PLATE inactive; negative | Test System: AMES SALMONELLA TYPHIMURIUM, Strain/Indicator: TA1538, Metabolic Activation: NONE, Method: PREINCUBATION inactive; negative | Test System: AMES SALMONELLA TYPHIMURIUM, Strain/Indicator: TA1538, Metabolic Activation: NONE, Method: STANDARD PLATE inactive; negative | Test System: AMES SALMONELLA TYPHIMURIUM, Strain/Indicator: TA1538, Metabolic Activation: RAT, LIVER, S-9, AROCLOR 1254, Method: PREINCUBATION inactive; negative | Test System: AMES SALMONELLA TYPHIMURIUM, Strain/Indicator: TA1538, Metabolic Activation: RAT, LIVER, S-9, AROCLOR 1254, Method: STANDARD PLATE inactive; negative | Test System: AMES SALMONELLA TYPHIMURIUM, Strain/Indicator: TA1538, Metabolic Activation: RAT, LIVER, S-9, Method: PREINCUBATION inactive; negative | Test System: AMES SALMONELLA TYPHIMURIUM, Strain/Indicator: TA1538, Metabolic Activation: RAT, LIVER, S-9, Method: STANDARD PLATE inactive; negative | Test System: E. COLI, Strain/Indicator: WP2 UVRA, Metabolic Activation: HAMSTER, LIVER, S-9, AROCLOR 1254, Method: PREINCUBATION inactive; negative | Test System: E. COLI, Strain/Indicator: WP2 UVRA, Metabolic Activation: HAMSTER, LIVER, S-9, AROCLOR 1254, Method: STANDARD PLATE inactive; negative | Test System: E. COLI, Strain/Indicator: WP2 UVRA, Metabolic Activation: HAMSTER, LIVER, S-9, Method: PREINCUBATION inactive; negative | Test System: E. COLI, Strain/Indicator: WP2 UVRA, Metabolic Activation: HAMSTER, LIVER, S-9, Method: STANDARD PLATE inactive; negative | Test System: E. COLI, Strain/Indicator: WP2 UVRA, Metabolic Activation: MOUSE, LIVER, S-9, AROCLOR 1254, Method: PREINCUBATION inactive; negative | Test System: E. COLI, Strain/Indicator: WP2 UVRA, Metabolic Activation: MOUSE, LIVER, S-9, AROCLOR 1254, Method: STANDARD PLATE inactive; negative | Test System: E. COLI, Strain/Indicator: WP2 UVRA, Metabolic Activation: MOUSE, LIVER, S-9, Method: PREINCUBATION inactive; negative | Test System: E. COLI, Strain/Indicator: WP2 UVRA, Metabolic Activation: MOUSE, LIVER, S-9, Method: STANDARD PLATE inactive; negative | Test System: E. COLI, Strain/Indicator: WP2 UVRA, Metabolic Activation: NONE, Method: PREINCUBATION inactive; negative | Test System: E. COLI, Strain/Indicator: WP2 UVRA, Metabolic Activation: NONE, Method: STANDARD PLATE inactive; negative | Test System: E. COLI, Strain/Indicator: WP2 UVRA, Metabolic Activation: RAT, LIVER, S-9, AROCLOR 1254, Method: PREINCUBATION inactive; negative | Test System: E. COLI, Strain/Indicator: WP2 UVRA, Metabolic Activation: RAT, LIVER, S-9, AROCLOR 1254, Method: STANDARD PLATE inactive; negative | Test System: E. COLI, Strain/Indicator: WP2 UVRA, Metabolic Activation: RAT, LIVER, S-9, Method: PREINCUBATION inactive; negative | Test System: E. COLI, Strain/Indicator: WP2 UVRA, Metabolic Activation: RAT, LIVER, S-9, Method: STANDARD PLATE inactive; negative
